Patent US12617777B2, “GPR84 antagonists and uses thereof” (Liminal BioSciences Limited, priority 2021, dated 2026)

Target: T1, human GPR84 receptor (Homo sapiens, UniProt Q9NQS5)
T1 construct: host or cells: HEK293, transient transfection
Test: Gαi biosensor BRET assay in HEK293 cells (antagonism of ZQ-16)
Assay type: cell-based
Settings: for inhibition at 10 µM: HEK293, single concentration 10 μM (designated F); for IC50: HEK293 cells, antagonism of 200 nmol/L ZQ-16; for inhibition at 2 µM: HEK293, single concentration 2 μM (designated A); for inhibition at 25 µM: HEK293, single concentration 25 μM (designated I)
Procedure, shortened: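 HEK293 cells transiently expressing human GPR84, Gαi2-Rluc8, GFP10-Gγ2 and Gβ1, in Tyrode's buffer pH 7.5. Compounds preincubated 5 min at 37° C, then 200 nmol/L ZQ-16 for 5 min at room temperature; coelenterazine 400A 5 μmol/L. BRET2 acceptor/donor ratio, background- and vehicle-corrected net BRET.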

T1 sequence (Q9NQS5 whole entry): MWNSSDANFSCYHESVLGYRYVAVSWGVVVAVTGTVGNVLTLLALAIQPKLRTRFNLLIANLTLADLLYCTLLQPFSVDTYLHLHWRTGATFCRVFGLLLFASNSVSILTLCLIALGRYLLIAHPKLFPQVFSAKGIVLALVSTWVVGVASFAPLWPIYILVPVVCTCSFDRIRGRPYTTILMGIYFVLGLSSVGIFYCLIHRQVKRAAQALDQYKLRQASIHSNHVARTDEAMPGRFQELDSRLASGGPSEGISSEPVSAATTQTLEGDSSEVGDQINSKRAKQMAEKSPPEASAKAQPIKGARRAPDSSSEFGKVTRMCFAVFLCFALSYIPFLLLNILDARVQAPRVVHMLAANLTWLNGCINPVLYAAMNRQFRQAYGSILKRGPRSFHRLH

Compound | inhibition at 10 µM | further results
COc1ccc(-c2cn(CC3CCCCO3)nn2)c(C)c1 (centres unmarked) [Compound I-412] | ≤ 25% | 
COC(c1cn(CC2Oc3ccccc3O2)nn1)c1cc(C#CC2CC2)ccc1C (centres unmarked) [Compound I-605] | > 75% | IC50: 300 to 1000 nM
OCC#Cc1ccc(-c2cn(CC3OCC4(CCC4)O3)nn2)c(CC(F)(F)F)c1 (centres unmarked) [Compound I-808] |  | inhibition at 2 µM: > 75%; IC50: 300 to 1000 nM
Cc1cc(N2CCN(Cc3ccccn3)CC2)ccc1-c1cn(CC2OCC3(CC3)CO2)cn1 [Compound I-795] | 25 to 50% | IC50: ≤ 300 nM
Cc1cc(N2CCN(C(C)c3ccccn3)CC2)ccc1-c1cn(CC2OCC(C)(C)CO2)cn1 (centres unmarked) [Compound I-828] | 50 to 75% | IC50: 300 to 1000 nM
Cc1cc(C#CC2CC2)ccc1-c1cn(CC2CC(C)(C)CCO2)nn1 (centres unmarked) [Compound I-599] | ≤ 25% | 
C(#CC1CC1)c1ccc2c(c1)CCc1cn(CC3CCCCO3)nc1-2 (centres unmarked) [Compound I-328] | ≤ 25% | 
C(#Cc1ccc(-c2cn(CC3CCCCO3)nn2)cc1)CN1CCCCC1 (centres unmarked) [Compound I-48] |  | inhibition at 15 µM (HEK293, single concentration 15 μM (designated H)): ≤ 25%
C(#CC1CC1)c1csc(-c2cn(CC3CCCCO3)nn2)c1 (centres unmarked) [Compound I-242] | ≤ 25% | 
CC1(C)COC(Cn2cc(Oc3ccccc3)nn2)OC1 [Compound I-743, 1-((5,5-dimethyl-1,3-dioxan-2-yl)methyl)-4-phenoxy-1H-1,2,3-triazole] | ≤ 25% | 
Cc1ccc(C#CC2CC2)cc1C1(c2cn(CC3CCCCO3)nn2)CC1 (centres unmarked) [Compound I-679, 4-(1-(5-(cyclopropylethynyl)-2-methylphenyl)cyclopropyl)-1-((tetrahydro-2H-pyran-2-yl)methyl)-1H-1,2,3-triazole] | > 75% | 
Cc1cc(C#CCO)cnc1-c1cn(C[C@H]2CCCCO2)nn1 [Compound I-272] | 50 to 75% | 
CC1(C)COC(Cn2cc(-c3ncc(C#CCN4CC(C)(CO)C4)cc3OC3CC3)nn2)OC1 [Compound I-799] | > 75% | IC50: ≤ 300 nM
Cc1ccc(C#CCNCc2ccccc2)cc1-c1cn(CC2CCCCO2)nn1 (centres unmarked) [Compound I-201] | ≤ 25% | 
CC(=O)N1CCOC(Cn2cc(-c3ccc(C#CC4CC4)cc3C)nn2)C1 (centres unmarked) [Compound I-96] | ≤ 25% | 
Cc1cc(C#CC2CC2)ccc1-c1nn(C[C@H]2CCCCO2)nc1C [Compound I-345] | ≤ 25% | 
C=C(c1cncc(C#CC2CC2)c1)c1cn(CC2CCCCO2)nn1 (centres unmarked) [Compound I-427] | 25 to 50% | IC50: > 3000 nM
CN(C)c1cc(N2CC(C)(C(=O)O)C2)ccc1-c1cn(CC2OCC(C)(C)CO2)nn1 [Compound I-696] | 25 to 50% | 
Cc1cc(N2CC3CCC(C2)N3Cc2ccccn2)ccc1-c1cn(CC2CCCCO2)nn1 (centres unmarked) [Compound I-466] | ≤ 25% | 
Cc1cc(N2CCCC2)ccc1-c1cn(CC2CCCCO2)nn1 (centres unmarked) [Compound I-472] | 25 to 50% | 
CC1(C)COC(Cn2cc(-c3ncc(C#CCN4CC(C)(C)C4)cc3CC(F)(F)F)nn2)OC1 [Compound I-762] |  | IC50: ≤ 300 nM
N#Cc1cc(C#CC2CC2)ccc1-c1cn(CC2CCCCO2)nn1 (centres unmarked) [Compound I-133] | 50 to 75% | 
Cc1cc(N2CCN(Cc3ncco3)CC2)ccc1-c1cn(CC2CCCCO2)nn1 (centres unmarked) [Compound I-579] | > 75% | 
CC(=O)N1CCCCC1Cn1cc(-c2ccc(C#CC3CC3)cc2C)nn1 (centres unmarked) [Compound I-139] | ≤ 25% | 

Compound | inhibition at 10 µM | further results
Cc1cc(N2CCCCC2)ccc1-c1cn(CC2CCCCO2)nn1 (centres unmarked) [Compound I-256] | ≤ 25% | 
CCc1cc(C#CCN2CC(C)(C)C2)cnc1-c1cn(C[C@H]2CCCCO2)nn1 [Compound I-277] | > 75% | 
Clc1cc(C#CC2CC2)cnc1-c1cn(C[C@H]2CCCCO2)nn1 [Compound I-823] | ≤ 25% | 
CC1(C)COC(Cn2cc(-c3ccc(N4CC(C)(CO)C4)cc3CC(F)(F)F)nn2)C1 (centres unmarked) [Compound I-740] |  | inhibition at 2 µM: > 75%; IC50: ≤ 300 nM
CC(C)Oc1cc(C#CCNc2ccccn2)cnc1-c1cn(CC2CC(C)(C)CO2)nn1 (centres unmarked) [Compound I-606] | 50 to 75% | 
COc1cc(C)c(-c2cn(CC3CCCCO3)nn2)cc1OC (centres unmarked) [Compound I-257] | ≤ 25% | 
CCn1c(C#CC2CC2)cnc1-c1cn(CC2CCCCO2)nn1 (centres unmarked) [Compound I-285] | > 75% | 
Cc1cc(N2CC3(CCCN3c3ccccn3)C2)ccc1-c1cn(CC2CCCCO2)nn1 (centres unmarked) [Compound I-623] | 50 to 75% | 
CC(c1cncc(C#CC2CC2)c1)c1cn(CC2CCCCO2)nn1 (centres unmarked) [Compound I-426] | 25 to 50% | 
Cc1cc(N2CC(NS(C)(=O)=O)C2)ccc1-c1cn(CC2CCCCO2)nn1 (centres unmarked) [Compound I-486] | ≤ 25% | 
CC(C)C#Cc1ccc(-c2cn(CC3CCCCO3)nn2)cc1 (centres unmarked) [Compound I-57] |  | inhibition at 25 µM: ≤ 25%
Cc1cc(N2CCN(Cc3ccnn3C)CC2)ccc1-c1cn(CC2CCCCO2)nn1 (centres unmarked) [Compound I-581] | ≤ 25% | 
CCc1cc(C#CCN(C)C2CC2)ccc1-c1cn(CC2OCC(C)(C)CO2)nn1 [Compound I-857] | ≤ 25% | 
CCN(CC)c1cc(N2CC(C)(CO)C2)ccc1-c1cn(CC2OCC3(CC3)CO2)nn1 [Compound I-800] | 50 to 75% | IC50: 300 to 1000 nM
Cc1cc(N2CC(C)(C(=O)Nc3ccccc3)C2)ccc1-c1cn(CC2CCCCO2)nn1 (centres unmarked) [Compound I-410] |  | inhibition at 2 µM: 25 to 50%
Cc1cc(C#CC2CC(F)(F)C2)cnc1-c1cn(CC2OCC(C)(C)CO2)nn1 [Compound I-653] | > 75% | 
Cc1cc(C#CC2CC2)cnc1-c1cn(CC2OCC(F)(F)CO2)nn1 [Compound I-713] | 50 to 75% | IC50: 300 to 1000 nM
COc1ccc(Cl)c(N(C)c2cn(CC3OCC(C)(C)CO3)nn2)c1 [Compound I-813] | > 75% | 
CC(c1cccc(C#CC2CC2)c1)c1cn(CC2CCCCO2)nn1 (centres unmarked) [Compound I-302] | > 75% | 
Cc1cc(N2CCC3(CC2)CN(C)C3)ccc1-c1cn(CC2CCCCO2)nn1 (centres unmarked) [Compound I-172] | ≤ 25% | 
Cc1cc(C#CC2CC2)ccc1-c1cn(CC2CNC(=O)O2)nn1 (centres unmarked) [Compound I-458] | ≤ 25% | 
CN(C)c1cc(N2CC(C)(CO)C2)ccc1-c1cn(CC2CC3(CC3)CO2)nn1 (centres unmarked) [Compound I-707] | > 75% | IC50: ≤ 300 nM
Cc1ccc(C#CC2CC2)cc1-c1cn(Cc2ncccn2)nn1 [Compound I-293] |  | inhibition at 2 µM: > 75%
CC(C)Oc1cc(C#CC2CC2)cnc1-c1cn(Cc2ncccn2)nn1 [Compound I-502] | > 75% | IC50: 1000 to 3000 nM

Compound | inhibition at 10 µM | further results
CC(=O)NC(C)(C)COc1ccc(-c2cn(CC3CCCCO3)nn2)c(C)c1 (centres unmarked) [Compound I-265] | 25 to 50% | 
c1ccc(COc2ccc3c(c2)CCc2cnn(CC4CCCCO4)c2-3)cc1 (centres unmarked) [Compound I-331] | ≤ 25% | 
Cc1cc(C#CC2CC2)sc1-c1cn(CC2CCCCO2)nn1 (centres unmarked) [Compound I-116] | 25 to 50% | 
Cc1cc(C#CC2CC2)ccc1-c1cn(CC2CC(C)(C)CO2)nn1 (centres unmarked) [Compound I-226] | > 75% | IC50: 1000 to 3000 nM
C(#CC1CC1)c1ccc(-c2nnn(CC3COCCO3)n2)cc1 (centres unmarked) [Compound I-3] |  | inhibition at 25 µM: ≤ 25%
Cc1ccc(-c2ccc(C3COC(=O)N3CC3CCCCO3)c(C)c2)cn1 (centres unmarked) [Compound I-407, 4-(2-methyl-4-(6-methylpyridin-3-yl)phenyl)-3-((tetrahydro-2H-pyran-2-yl)methyl)oxazolidin-2-one] | ≤ 25% | 
O=S1(=O)CCC(Cn2cc(-c3ccc(C#CC4CC4)cc3)nn2)CC1 [Compound I-56] |  | inhibition at 25 µM: ≤ 25%
Cc1cc(N2CCN(CC3CC4CCN3CC4)CC2)ccc1-c1cn(CC2CCCCO2)nn1 (centres unmarked) [Compound I-657] | ≤ 25% | 
Cc1cc(C#CC2CC2)cnc1-c1cn(CC2OCC3(CCC3)CO2)nn1 [Compound I-840] |  | inhibition at 2 µM: > 75%
Cc1ccc(-c2ccc(-c3nnn(CC4CCCCO4)n3)cc2)cn1 (centres unmarked) [Compound I-2] |  | inhibition at 25 µM: ≤ 25%
CC(C)Oc1cc(C#CC2CC(F)(F)C2)cnc1-c1cn(CC2CCCCO2)nn1 (centres unmarked) [Compound I-649] |  | inhibition at 2 µM: > 75%; IC50: 1000 to 3000 nM
Cc1cc(C#CC2CC2)cnc1-c1cn(CC2OCC(C)(C)O2)nn1 (centres unmarked) [Compound I-601] | ≤ 25% | 
CCc1c(C#CC2CC2)cccc1Cc1cn(CC2CCCCO2)nn1 (centres unmarked) [Compound I-476] |  | inhibition at 2 µM: ≤ 25%
CC1(C)COC(Cn2cc(-c3c(Cl)cc(C#CC4CC4)c[n+]3[O-])nn2)OC1 [Compound I-817] | > 75% | 
Cn1cc(-c2ccc(C#CC3CC3)cc2)nc1CC1CCCCO1 (centres unmarked) [Compound I-337] |  | inhibition at 5 µM (HEK293, single concentration 5 μM (designated D)): ≤ 25%
Cc1cc(N2CC(C(C)O)C2)ccc1-c1cn(CC2CCCCO2)nn1 (centres unmarked) [Compound I-508] | 50 to 75% | 
Cc1cc(C#CC2CC2)ccc1-n1nc(OC[C@H]2COCCO2)oc1=O [Compound I-13] | 25 to 50% | 
CC(C)c1cc(C#CC2CC2)ccc1-c1cn(CC2CCOCC2)nn1 [Compound I-212] | ≤ 25% | 
CC(c1cccc(C#CCN2CC(C)(C)C2)c1)c1cn(CC2CCCCO2)nn1 (centres unmarked) [Compound I-425] | 25 to 50% | 
CCOCC#Cc1cnc(-c2cn(CC3OCC(C)(C)CO3)nn2)c(OC(C)C)c1 [Compound I-838] | 50 to 75% | 
CCOc1cc(C#CCOC)cnc1-c1cn(CC2OCC(C)(C)CO2)nn1 [Compound I-834] | ≤ 25% | IC50: ≤ 300 nM
Cc1cc(C#CCNc2ccccc2)ccc1-c1cn(CCOc2cccnc2)nn1 [Compound I-136] | ≤ 25% | 
Cc1cc(C#CC2CC2)ccc1-c1cn(CC2COCCN2C)nn1 (centres unmarked) [Compound I-527] | ≤ 25% | 
Cc1cc(C#CC2CC2)ccc1-c1cn(CC2CCCCO2)nc1C (centres unmarked) [Compound I-326] | ≤ 25% | 
